Where a name gives a salt, the structure may show the parent alone. Numbered stars: 1 amine (or outer) side, 2 acyl side, 3 side chain; on linkers, the order of the positions; unused ones are H or OH. Square brackets hold non-standard residues; d marks the D form. Peptide text beside a SMILES is read from it. X2 = C[C@@H]1CC[C@@H](C(=O)[*:2])N1[*:1]; Pro(4,4-Me2) = CC1(C)CN[C@H](C(=O)O)C1; d(cisHyp) = O=C(O)[C@H]1C[C@@H](O)CN1; Hyp = O=C(O)[C@@H]1C[C@@H](O)CN1; dHyp = O=C(O)[C@H]1C[C@H](O)CN1
How the values were obtained:
[1] = test system: human primary corneal epithelial cells; assay: Cell growth rate of human primary corneal epithelial cells (CellTiter-Glo); type: cell-based; details: 48 hours and 72 hours
Description: In order to confirm whether the YDE derivatives could recover corneal damage, the cellular growth rate of human primary corneal epithelial cells was checked.
Specifically, primary corneal epithelial cells (ATCC, ATCC PCS-700-010) were seeded on a 96-well culture plate (Perkin Elmer, 6005680) containing the Corneal Epithelial Cell Basal Medium (ATCC, ATCC PCS-700-030) in the Corneal Epithelial Cell Growth Kit (ATCC, ATCC PCS-700-040) in an amount of 5×10^3 cells per well, which was then cultured for 24 hours under the conditions of 37° C. and 5% CO2.
YDE-001 to YDE-075 were each dissolved in 100% DMSO (Sigma, D2660) to a concentration of 10 mM, which was then diluted with 100% DMSO to a concentration of the compound of 6, 1.9, 0.6, 0.2, 0.06, 0.02, 0.006, and 0.002 mM. 20 μl of the diluted YDE derivative was added to a 96-well microplate (Greiner Bio-One, 651201) containing 380 μl of the Corneal Epithelial Cell Basal Medium such that the concentration of DMSO was diluted to 5%.
After 24 hours, 20 μl of each of the YDE derivatives diluted in the 96-well microplate was added to the 96-well culture plate containing the cells. As a control group, hEGF (Sigma, E9644) was treated at the same concentration as the YDE derivatives. The cells treated with the YDE-derivatives or hEGF were cultured for 48 hours and 72 hours under the conditions of 37° C. and 5% CO2 (FIGS. 18 to 25).
The cultured cells were treated with the CellTiter-Glo luminescent reagent (Promega, G7573) according to the manufacturer's instructions and reacted for 30 minutes at room temperature. Thereafter, the fluorescent signal (or luminescence signal) was checked using an Envision 2014 Multi-label plate reader. The measured values were normalized using a vehicle control (100% proliferation cell).

[2] = test system: rats with dry eye syndrome (extraorbital lacrimal gland excision, ELGE); assay: Amount of tear secretion (Schirmer test, cobalt chloride paper) in ELGE rats with dry eye syndrome; type: in vivo, rat; details: for Tear Volumes, Day 7 / Tear Volumes, Day 14: ELGE rats, 3 mg/ml, 5 μl/eye twice daily; for Tear Volumes, Day 7: day 7 of administration; for Tear Volumes, Day 14: day 14 of administration
In short: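 Dry eye induced in male Sprague-Dawley rats by extraorbital lacrimal gland excision; sham-operated controls. From 7 days post-surgery, 3 mg/ml test compounds in saline given topically at 5 μl/eye twice daily for 14 days. Tear secretion measured on days 7 and 14 as wetted length of cobalt chloride paper held 60 s in the lateral canthus.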

[3] = test system: cornea of rats with dry eye syndrome (ELGE); assay: Corneal permeability of fluorescent dye (corneal damage) in ELGE rats with dry eye syndrome; type: in vivo, rat; details: 5 μl/eye twice daily, day 14
In short: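 Dry eye induced in male Sprague-Dawley rats by extraorbital lacrimal gland excision; from day 7, 3 mg/ml compound in saline given at 5 μl/eye twice daily. After 14 doses, rats anaesthetized (Zolethyl 25 mg/kg ip), 1% fluorescein applied 1 h, and corneal staining read 12-24 h later by slit-lamp under blue light.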

[4] = Stability in aqueous solution under long-term storage conditions (related substances); type: physicochemical; details: 25° C., 75% RH
In short: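 Test substances dissolved in water at 1 mg/ml, sealed in glass vials and held at 25° C./75% RH. Related substances measured at 1, 2, 4, 8 and 12 weeks.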

[5] = Table 4, study of YDE-001 to YDE-028
[6] = Table 6, study of YDE-001 to YDE-028, 3 mg/ml
[7] = Table 5, study of YDE-029 to YDE-043
[8] = Table 7, study of YDE-029 to YDE-043, 3 mg/ml

SMILES | Amount of related substances (after 12 weeks) [4] [%] | Cell proliferation rate (in words) [1] | Tear Volumes, Day 7 [2, 5] [mm^3] | Tear Volumes, Day 14 [2, 5] [mm^3] | Permeability of fluorescent dye [3, 6] [%] | Tear Volumes, Day 7 [2, 7] [mm^3] | Tear Volumes, Day 14 [2, 7] [mm^3] | Permeability of fluorescent dye [3, 8] [%] | Change in amount of tear secretion as compared with the ELGE control group ([2]; study of YDE-001 to YDE-028, 3% solution as printed, after administration for 14 days)
CC(C)C[C@H](NC(=O)CNC(=O)[C@H](CC(C)C)NC(=O)[C@H](CCC(N)=O)NC(=O)CNC(=O)[C@@H]1CC[C@@H](C)N1)C(=O)N[C@@H](C)C(=O)NCC(=O)N1CCC[C@H]1C(=O)N[C@@H](CCCCN)C(=O)O [YDE-045] (H-[X2]GQLGLAGPK-OH) | – | high cell proliferation rate | – | – | – | – | – | – | –
CC(C)C[C@H](NC(=O)CNC(=O)[C@H](CC(C)C)NC(=O)[C@H](CCC(N)=O)NC(=O)CNC(=O)[C@@H]1C[C@@H](O)CN1)C(=O)N[C@@H](C)C(=O)NCC(=O)N1CCC[C@H]1C(=O)N[C@@H](CCCCN)C(=O)O [YDE-011, H-Hyp-Gly-Gln-Leu-Gly-Leu-Ala-Gly-Pro-Lys-OH AcOH salt] (H-[Hyp]GQLGLAGPK-OH) | 3.83 | high cell proliferation rate | 4.22 ± 1.45 | 6.16 ± 2.16 | 18.11 ± 11.61 | – | – | – | –
CC(C)C[C@H](NC(=O)CNC(=O)[C@H](CC(C)C)NC(=O)[C@H](CCC(N)=O)NC(=O)CNC(=O)[C@@H]1CC(C)(C)CN1)C(=O)N[C@@H](C)C(=O)NCC(=O)N1CCC[C@H]1C(=O)N[C@@H](CCCCN)C(=O)O [YDE-040] (H-[Pro(4,4-Me2)]GQLGLAGPK-OH) | 3.58 | – | – | – | – | 5.77 ± 1.05 | 8.63 ± 1.53 | 18.33 ± 9.41 | –
CC(C)C[C@H](NC(=O)CNC(=O)[C@H](CC(C)C)NC(=O)[C@H](CCC(N)=O)NC(=O)CNC(=O)[C@H]1C[C@H](O)CN1)C(=O)N[C@@H](C)C(=O)NCC(=O)N1CCC[C@H]1C(=O)N[C@@H](CCCCN)C(=O)O [YDE-057] (H-[dHyp]GQLGLAGPK-OH) | – | high cell proliferation rate | – | – | – | – | – | – | –
CNC(=O)C[C@H](NC(=O)[C@H](CCC(N)=O)NC(=O)CNC(=O)[C@@H]1C[C@@H](O)CN1)C(=O)NCC(=O)N[C@@H](CC(C)C)C(=O)N[C@@H](C)C(=O)NCC(=O)N1CCC[C@H]1C(=O)N[C@@H](CCCCN)C(=O)O [YDE-028] (H-[Hyp]GQD(NHMe)GLAGPK-OH) | 1.15 | – | 4.04 ± 0.99 | 4.73 ± 1.18 | 41.17 ± 10.25 | – | – | – | did not show any significant changes
CC(C)C[C@@H](NC(=O)CNC(=O)[C@@H](CC(C)C)NC(=O)[C@@H](CCC(N)=O)NC(=O)CNC(=O)[C@H]1C[C@@H](O)CN1)C(=O)N[C@H](C)C(=O)NCC(=O)N1CCC[C@@H]1C(=O)N[C@H](CCCCN)C(=O)O [YDE-060] (H-[d(cisHyp)]G[dQ][dL]G[dL][dA]G[dP][dK]-OH) | – | high cell proliferation rate | – | – | – | – | – | – | –
CC(C)C[C@H](NC(=O)[C@H](CCC(N)=O)NC(=O)CNC(=O)[C@@H]1C[C@@H](O)CN1)C(=O)NCC(=O)O [YDE-043] (H-[Hyp]GQLG-OH) | 3.43 | – | – | – | – | 5.90 ± 1.06 | 8.16 ± 1.42 | 19.04 ± 7.36 | –
CC(C)C[C@H](NC(=O)CNC(=O)[C@H](Cc1ccccc1)NC(=O)[C@H](CCC(N)=O)NC(=O)CNC(=O)[C@@H]1C[C@@H](O)CN1)C(=O)N[C@@H](C)C(=O)NCC(=O)N1CCC[C@H]1C(=O)N[C@@H](CCCCN)C(=O)O [YDE-012] (H-[Hyp]GQFGLAGPK-OH) | 3.57 | – | 3.68 ± 0.99 | 5.67 ± 1.86 | 31.01 ± 11.38 | – | – | – | –

Now from value to compound, other results behind:

Amount of related substances (after 12 weeks) [4] [%] | SMILES | Cell proliferation rate (in words) [1] | Tear Volumes, Day 7 [2, 5] [mm^3] | Tear Volumes, Day 14 [2, 5] [mm^3] | Permeability of fluorescent dye [3, 6] [%] | Tear Volumes, Day 7 [2, 7] [mm^3] | Tear Volumes, Day 14 [2, 7] [mm^3] | Permeability of fluorescent dye [3, 8] [%] | Change in amount of tear secretion as compared with the ELGE control group ([2]; study of YDE-001 to YDE-028, 3% solution as printed, after administration for 14 days)
4.42 | CC(C)C[C@H](NC(=O)CNC(=O)[C@H](C)NC(=O)[C@H](CCC(N)=O)NC(=O)CNC(=O)[C@@H]1C[C@@H](O)CN1)C(=O)N[C@@H](C)C(=O)NCC(=O)N1CCC[C@H]1C(=O)N[C@@H](CCCCN)C(=O)O [YDE-008] (H-[Hyp]GQAGLAGPK-OH) | – | 4.57 ± 1.25 | 6.10 ± 2.36 | 20.32 ± 11.87 | – | – | – | –
5.92 | CC(C)C[C@H](NC(=O)CNC(=O)[C@H](Cc1ccc(O)cc1)NC(=O)[C@H](CCC(N)=O)NC(=O)CNC(=O)[C@@H]1C[C@@H](O)CN1)C(=O)N[C@@H](C)C(=O)NCC(=O)N1CCC[C@H]1C(=O)N[C@@H](CCCCN)C(=O)O [YDE-013] (H-[Hyp]GQYGLAGPK-OH) | – | 5.27 ± 1.50 | 5.49 ± 1.92 | 32.24 ± 7.84 | – | – | – | –
34.82 | CC(C)C[C@H](NC(=O)CNC(=O)[C@H](CC(C)C)NC(=O)[C@H](CCC(N)=O)NC(=O)CNC(=O)[C@@H]1C[C@@H](O)CN1)C(=O)N[C@@H](C)C(=O)NCC(=O)N1CCC[C@H]1C(=O)N[C@@H](CCC(=O)O)C(=O)O [YDE-031] (H-[Hyp]GQLGLAGPE-OH) | – | – | – | – | 5.63 ± 1.97 | 5.91 ± 0.85 | 33.35 ± 11.01 | –
13.05 | CC(C)C[C@H](NC(=O)[C@@H](NC(=O)[C@H](CC(=O)O)NC(=O)[C@H](CCC(N)=O)NC(=O)CNC(=O)[C@@H]1C[C@@H](O)CN1)C(C)C)C(=O)N[C@@H](C)C(=O)NCC(=O)N1CCC[C@H]1C(=O)N[C@@H](CCCCN)C(=O)O [YDE-015] (H-[Hyp]GQDVLAGPK-OH) | – | 4.03 ± 2.19 | 6.65 ± 2.13 | 15.95 ± 6.48 | – | – | – | –
4.93 | CC(C)C[C@H](NC(=O)CNC(=O)[C@H](CC(N)=O)NC(=O)[C@H](CCC(N)=O)NC(=O)CNC(=O)[C@@H]1C[C@@H](O)CN1)C(=O)N[C@@H](C)C(=O)NCC(=O)N1CCC[C@H]1C(=O)N[C@@H](CCCCN)C(=O)O [YDE-002] (H-[Hyp]GQNGLAGPK-OH) | – | 3.84 ± 1.16 | 5.01 ± 1.67 | 38.26 ± 11.25 | – | – | – | –
30.66 | CC(C)C[C@H](NC(=O)[C@H](CO)NC(=O)[C@H](CC(=O)O)NC(=O)[C@H](CCC(N)=O)NC(=O)CNC(=O)[C@@H]1C[C@@H](O)CN1)C(=O)N[C@@H](C)C(=O)NCC(=O)N1CCC[C@H]1C(=O)N[C@@H](CCCCN)C(=O)O [YDE-023] (H-[Hyp]GQDSLAGPK-OH) | – | 5.32 ± 2.30 | 5.78 ± 2.23 | 26.51 ± 8.18 | – | – | – | –

— patent publication US11613558B2, “Peptides and pharmaceutical compositions for treating eye diseases” (Yuyu Pharma, Inc., priority 2018, dated 2023)
